Results as given in PubChem BioAssay (NCI).
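Five compound concentrations were applied to cells in 96-well plates for 48 hours; endpoints were derived by simple linear interpolation of the resulting dose-response curve. TGI is the concentration that stops growth completely.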

Assays:
Assay in all cases: DTP human tumour cell line panel, 48 h
[1] = test system: SR leukemia
[2] = test system: SNB-19 CNS
[3] = test system: NCI-H226 lung
[4] = test system: HT29 colon
[5] = test system: MALME-3M melanoma
[6] = test system: IGROV1 ovarian
[7] = test system: SK-OV-3 ovarian
[8] = test system: SW-620 colon
[9] = test system: HOP-92 NSCLC
[10] = test system: K-562 leukemia
[11] = test system: RPMI-8226 leukemia
[12] = test system: UACC-62 melanoma
[13] = test system: DU-145 prostate
[14] = test system: PC-3 prostate
[15] = test system: SF-539 CNS
[16] = test system: MDA-MB-435
[17] = test system: MDA-N
[18] = test system: TK-10 renal
[19] = test system: SK-MEL-28 melanoma
[20] = test system: EKVX NSCLC

| Structure (SMILES) | TGI [1] [µM] | TGI [2] [µM] | TGI [3] [µM] | TGI [4] [µM] | TGI [5] [µM] | TGI [6] [µM] | TGI [7] [µM] | TGI [8] [µM] | TGI [9] [µM] | TGI [10] [µM] | TGI [11] [µM] | TGI [12] [µM] | TGI [13] [µM] | TGI [14] [µM] | TGI [15] [µM] | TGI [16] [µM] | TGI [17] [µM] | TGI [18] [µM] | TGI [19] [µM] | TGI [20] [µM] |
| --- | --- | --- | --- | --- | --- | --- | --- | --- | --- | --- | --- | --- | --- | --- | --- | --- | --- | --- | --- | --- |
| CCC(C)C1NC(=O)C(NC(=O)c2c3[nH]c4c(C(=O)NC5C(=O)NC(C(C)CC)C(=O)N6CCCC6C(=O)N(C)CC(=O)N(C)C(C(C)C)C(=O)OC5C)ccc(C)c4oc-3c(C)c(=O)c2=O)C(C)OC(=O)C(C(C)C)N(C)C(=O)CN(C)C(=O)C2CCCN2C1=O (stereo not given) | 4 | > 100 | > 51.6 | 29.2 | 22.8 | > 100 | > 100 | > 93.7 | > 80.3 | > 65 | 35.1 | 17.6 | > 78 | > 100 | 37.4 | > 71.6 | 33 | 98.4 | 76.3 | > 100 |
| C/C(=N/NC(=S)Nc1ccc(Cl)cc1)c1cccc(/C(C)=N\NC(=S)Nc2ccc(Cl)cc2)n1 | 7.25 | > 100 | 47.5 | > 100 | 36 | > 100 | > 100 | > 100 | > 100 | 45 | 39.7 | 43.1 | 65.5 | > 100 | 10.6 | 55.8 | > 100 | > 100 | 45.6 | > 100 |
| CC(=O)Oc1ccc2c(c1)c1c(=O)oc(C)nc1n2Cc1ccccc1 | > 100 | > 100 | > 69.7 | > 100 | > 100 | > 100 | 98.6 | > 100 | > 100 | > 100 | > 100 | > 31.6 | > 100 | > 100 | > 100 | 99.4 | > 88.1 | > 91.2 | > 100 | > 100 |
| C=CC1C(OC2OC(CO)C(O)C(O)C2O)OC=C(C(=O)OC)C1CC1CC(=O)CC(CCc2ccc(O)cc2)O1 (stereo not given) | > 100 | > 100 | > 100 | > 100 | > 100 | > 100 | > 100 | > 100 | > 100 | > 100 | > 100 | > 100 | > 100 | > 100 | > 100 | > 100 | > 100 | > 100 | > 100 | > 100 |
| c1ccc([P+](CC[P+](c2ccccc2)(c2ccccc2)c2ccccc2)(c2ccccc2)c2ccccc2)cc1 | > 79.8 | > 100 | > 100 | > 100 | > 63.4 | > 100 | > 100 | > 100 | > 92.3 | > 100 | 7.79 | > 100 | > 100 | 60.6 | > 44.5 | 45.5 | > 61.8 | > 67.3 | 38.4 | > 100 |
| O=C1c2cccc3cccc(c23)C(=O)N1CCCNCCCNCCCCNCCCNCCCN1C(=O)c2cccc3cccc(c23)C1=O | > 31.8 | 15.9 | 28.6 | 5.5 | 7.03 | 24.5 | 32.1 | 14.9 | 22 | 16.5 | > 34 | 12.3 | 14 | 13.4 | 23.7 | 10.1 | 6.83 | 25 | 9 | 22 |
| O=[N+]([O-])/C(C(Cl)=C(Cl)Cl)=C(/Nc1ccccc1)SCc1ccccc1 | 52.3 | 58.4 | 44.6 | 66.1 | 30.1 | 39.9 | > 100 | 49 | 60.5 | 49.9 | 37.7 | 44.6 | 59.4 | 49.4 | 38.8 | 31.7 | 33.9 | 60.6 | 39.2 | 48.6 |
| O=C(Oc1cccnc1)c1cc2cc(CCl)ccc2oc1=O | 73.6 | > 100 | > 100 | 39.9 | 54.9 | 66.3 | > 100 | > 100 | 36.9 | 40.6 | 66 | 36.9 | 39.5 | 32.9 | > 100 | 73 | > 100 | 50.8 | > 100 | 52.1 |
| COC(=O)[C@H](Cc1c[nH]c2ccccc12)NC(=O)c1ccc(CNC(=O)/C(C)=C/c2ccccc2)cc1 | > 100 | > 100 | > 100 | > 100 | 25.6 | > 100 | > 100 | > 100 | 34.3 | > 100 | > 100 | 41.7 | > 100 | > 100 | > 100 | > 100 | 40.3 | > 100 | 36.7 | > 100 |
